Reference: ChEMBL document CHEMBL5653631, “A Potent and Selective ULK1 Inhibitor Suppresses Autophagy and Sensitizes Cancer Cells to Nutrient Stress” (iScience, 2018)
Blank lines part the entries; values can stand above or below the compound they belong to.

Experiments:
[1] = molecular target: Tau-tubulin kinase 2 (Homo sapiens) (UniProt Q6IQ55); test: Inhibition of human recombinant TTBK2 at 500 nM related to control ULK1
[2] = molecular target: Proto-oncogene tyrosine-protein kinase ROS (Homo sapiens) (UniProt P08922); test: Inhibition of human recombinant ROS at 500 nM in presence of ATP by radiometric assay relative to control
[3] = molecular target: Serine/threonine-protein kinase 35 (Homo sapiens) (UniProt Q8TDR2); test: Inhibition of human recombinant CLIK1 at 500 nM in presence of ATP by radiometric assay relative to control
Sequence of Serine/threonine-protein kinase 35 (Homo sapiens) (Q8TDR2 whole entry): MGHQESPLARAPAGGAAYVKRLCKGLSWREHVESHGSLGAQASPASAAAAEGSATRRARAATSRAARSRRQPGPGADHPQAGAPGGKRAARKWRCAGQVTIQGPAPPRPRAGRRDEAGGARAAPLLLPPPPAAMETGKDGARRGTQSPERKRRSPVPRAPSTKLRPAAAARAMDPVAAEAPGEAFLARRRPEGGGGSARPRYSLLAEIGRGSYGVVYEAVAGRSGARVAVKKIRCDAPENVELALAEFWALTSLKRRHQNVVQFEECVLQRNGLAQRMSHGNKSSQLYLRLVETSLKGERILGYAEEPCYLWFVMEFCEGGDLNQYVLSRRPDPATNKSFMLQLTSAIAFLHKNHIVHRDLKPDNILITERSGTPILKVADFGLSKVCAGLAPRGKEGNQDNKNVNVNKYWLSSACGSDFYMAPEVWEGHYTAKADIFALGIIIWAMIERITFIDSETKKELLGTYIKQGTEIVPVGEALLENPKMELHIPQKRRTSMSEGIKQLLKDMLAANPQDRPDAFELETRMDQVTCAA

[4] = molecular target: Serine/threonine-protein kinase Nek6 (Homo sapiens) (UniProt Q9HC98); test: Inhibition of human recombinant NEK6 at 500 nM in presence of ATP by radiometric assay relative to control
[5] = molecular target: Angiopoietin-1 receptor (Homo sapiens) (UniProt Q02763); test: Inhibition of human recombinant Tie2 at 500 nM related to control ULK1
Sequence of Angiopoietin-1 receptor (Homo sapiens) (Q02763 whole entry): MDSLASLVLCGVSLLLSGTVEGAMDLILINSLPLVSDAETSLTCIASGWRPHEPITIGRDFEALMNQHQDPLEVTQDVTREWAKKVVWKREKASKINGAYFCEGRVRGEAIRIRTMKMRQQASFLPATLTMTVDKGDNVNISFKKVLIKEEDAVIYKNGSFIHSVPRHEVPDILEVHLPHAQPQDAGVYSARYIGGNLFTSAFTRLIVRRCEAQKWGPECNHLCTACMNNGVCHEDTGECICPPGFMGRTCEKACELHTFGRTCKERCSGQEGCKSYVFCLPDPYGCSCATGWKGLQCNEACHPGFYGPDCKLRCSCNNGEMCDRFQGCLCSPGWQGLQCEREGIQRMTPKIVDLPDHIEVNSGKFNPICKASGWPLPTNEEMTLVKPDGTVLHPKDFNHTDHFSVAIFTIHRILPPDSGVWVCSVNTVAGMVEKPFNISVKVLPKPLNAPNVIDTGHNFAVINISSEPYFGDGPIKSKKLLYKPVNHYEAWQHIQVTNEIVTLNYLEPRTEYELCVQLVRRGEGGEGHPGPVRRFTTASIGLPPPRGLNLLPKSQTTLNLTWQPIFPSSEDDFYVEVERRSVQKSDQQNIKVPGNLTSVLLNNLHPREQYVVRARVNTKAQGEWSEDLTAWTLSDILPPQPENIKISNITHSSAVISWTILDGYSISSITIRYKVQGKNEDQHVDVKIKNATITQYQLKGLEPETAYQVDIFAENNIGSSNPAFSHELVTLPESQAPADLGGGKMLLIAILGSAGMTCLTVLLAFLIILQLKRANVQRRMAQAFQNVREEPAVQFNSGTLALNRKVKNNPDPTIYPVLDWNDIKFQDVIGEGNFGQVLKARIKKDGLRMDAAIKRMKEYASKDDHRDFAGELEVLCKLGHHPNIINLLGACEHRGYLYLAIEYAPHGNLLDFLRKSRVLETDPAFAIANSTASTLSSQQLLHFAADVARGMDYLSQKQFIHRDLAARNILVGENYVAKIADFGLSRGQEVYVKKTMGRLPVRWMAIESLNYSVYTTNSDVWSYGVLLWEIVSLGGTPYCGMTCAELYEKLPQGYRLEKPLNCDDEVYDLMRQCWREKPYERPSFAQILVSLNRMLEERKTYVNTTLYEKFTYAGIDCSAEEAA

[6] = molecular target: MAP kinase-interacting serine/threonine-protein kinase 2 (Homo sapiens, UniProt Q9HBH9); test: Inhibition of human recombinant MNK2 at 500 nM related to control ULK1
[7] = molecular target: T1, Serine/threonine-protein kinase ULK3 (Homo sapiens) (UniProt Q6PHR2); test: Inhibition of human recombinant ULK3 at 500 nM related to control ULK1
T1 sequence (whole entry): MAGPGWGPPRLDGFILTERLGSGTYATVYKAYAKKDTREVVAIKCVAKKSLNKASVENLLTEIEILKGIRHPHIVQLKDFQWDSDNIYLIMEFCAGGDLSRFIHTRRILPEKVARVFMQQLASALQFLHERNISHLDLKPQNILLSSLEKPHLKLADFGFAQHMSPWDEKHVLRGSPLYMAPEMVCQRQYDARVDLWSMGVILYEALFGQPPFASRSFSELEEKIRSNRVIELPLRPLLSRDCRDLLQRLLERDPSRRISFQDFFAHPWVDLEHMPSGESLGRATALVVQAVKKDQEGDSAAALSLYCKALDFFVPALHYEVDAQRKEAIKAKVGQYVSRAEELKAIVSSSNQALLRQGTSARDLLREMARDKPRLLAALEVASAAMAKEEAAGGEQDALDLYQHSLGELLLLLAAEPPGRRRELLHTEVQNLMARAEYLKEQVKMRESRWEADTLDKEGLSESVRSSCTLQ

[8] = molecular target: Receptor tyrosine-protein kinase erbB-4 (Homo sapiens) (UniProt Q15303); test: Inhibition of human recombinant ErbB4 at 15 nM related to control ULK1
[9] = molecular target: Calcium/calmodulin-dependent protein kinase kinase 2 (Homo sapiens) (UniProt Q96RR4); test: Inhibition of human recombinant CaMKK2 at 15 nM related to control ULK1
Sequence of Calcium/calmodulin-dependent protein kinase kinase 2 (Homo sapiens) (Q96RR4 2-588 limits assumed): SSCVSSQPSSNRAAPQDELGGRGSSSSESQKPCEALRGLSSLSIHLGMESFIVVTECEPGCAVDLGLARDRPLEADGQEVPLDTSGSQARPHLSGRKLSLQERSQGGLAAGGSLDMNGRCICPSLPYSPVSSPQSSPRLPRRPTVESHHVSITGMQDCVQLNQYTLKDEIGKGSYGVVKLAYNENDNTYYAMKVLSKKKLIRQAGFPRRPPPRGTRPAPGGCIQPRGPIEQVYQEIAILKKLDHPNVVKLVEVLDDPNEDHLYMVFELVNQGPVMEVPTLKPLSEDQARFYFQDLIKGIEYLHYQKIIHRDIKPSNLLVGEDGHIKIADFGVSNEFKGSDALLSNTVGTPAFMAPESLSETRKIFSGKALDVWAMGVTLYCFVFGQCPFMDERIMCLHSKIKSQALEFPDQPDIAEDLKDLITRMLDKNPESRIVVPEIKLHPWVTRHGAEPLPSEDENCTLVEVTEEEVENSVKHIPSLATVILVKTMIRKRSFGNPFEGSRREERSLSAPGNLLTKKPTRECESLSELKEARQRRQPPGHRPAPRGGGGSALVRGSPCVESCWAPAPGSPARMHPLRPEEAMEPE

[10] = molecular target: Tyrosine-protein kinase Lyn (Homo sapiens) (UniProt P07948); test: Inhibition of human recombinant LYN at 15 nM in presence of ATP by radiometric assay relative to control
[11] = molecular target: T2, Tyrosine-protein kinase receptor TYRO3 (Homo sapiens) (UniProt Q06418); test: Inhibition of human recombinant TYRO3 at 15 nM related to control ULK1
T2 sequence (whole entry): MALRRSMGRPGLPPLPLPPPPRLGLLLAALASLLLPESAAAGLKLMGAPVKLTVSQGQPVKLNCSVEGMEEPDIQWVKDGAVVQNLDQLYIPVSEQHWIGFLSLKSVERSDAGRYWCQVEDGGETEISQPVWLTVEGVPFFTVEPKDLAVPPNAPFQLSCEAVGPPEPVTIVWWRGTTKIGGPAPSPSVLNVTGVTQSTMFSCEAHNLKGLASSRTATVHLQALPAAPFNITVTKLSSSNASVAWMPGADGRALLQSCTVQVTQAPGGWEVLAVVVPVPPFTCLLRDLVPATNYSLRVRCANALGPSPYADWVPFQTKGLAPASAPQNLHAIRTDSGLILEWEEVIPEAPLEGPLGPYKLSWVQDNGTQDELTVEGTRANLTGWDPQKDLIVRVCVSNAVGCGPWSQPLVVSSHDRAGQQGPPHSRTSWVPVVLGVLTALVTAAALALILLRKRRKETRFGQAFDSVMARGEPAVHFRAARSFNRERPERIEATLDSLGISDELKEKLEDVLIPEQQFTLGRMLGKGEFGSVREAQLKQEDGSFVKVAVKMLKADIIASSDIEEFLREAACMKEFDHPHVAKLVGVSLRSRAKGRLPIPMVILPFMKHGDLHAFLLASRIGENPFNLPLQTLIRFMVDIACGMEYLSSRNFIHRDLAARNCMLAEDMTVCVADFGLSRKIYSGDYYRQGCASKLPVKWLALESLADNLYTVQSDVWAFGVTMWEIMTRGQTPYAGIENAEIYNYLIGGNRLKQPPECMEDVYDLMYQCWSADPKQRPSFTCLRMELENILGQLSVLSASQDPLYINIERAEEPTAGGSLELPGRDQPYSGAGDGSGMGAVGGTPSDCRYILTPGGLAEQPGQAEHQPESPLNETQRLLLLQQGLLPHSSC

[12] = molecular target: Cyclin-dependent kinase 9 (Homo sapiens) (UniProt P50750); test: Inhibition of human recombinant CDK9 at 15 nM related to control ULK1
Sequence of Cyclin-dependent kinase 9 (Homo sapiens) (P50750 whole entry): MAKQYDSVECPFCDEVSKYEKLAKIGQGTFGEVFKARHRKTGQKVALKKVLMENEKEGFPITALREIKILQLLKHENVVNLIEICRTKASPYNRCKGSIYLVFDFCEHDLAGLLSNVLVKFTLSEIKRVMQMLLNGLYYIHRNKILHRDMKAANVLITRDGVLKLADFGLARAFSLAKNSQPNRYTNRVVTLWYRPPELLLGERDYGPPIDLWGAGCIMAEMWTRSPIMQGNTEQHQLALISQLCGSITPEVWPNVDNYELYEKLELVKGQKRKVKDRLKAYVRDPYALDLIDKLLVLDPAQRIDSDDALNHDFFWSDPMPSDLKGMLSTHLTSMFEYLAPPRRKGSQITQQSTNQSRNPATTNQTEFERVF

[13] = molecular target: Cyclin-dependent kinase 1 (Homo sapiens) (UniProt P06493); test: Inhibition of human recombinant CDC2 at 40 nM in presence of ATP by radiometric assay relative to control
[14] = molecular target: Cyclin-dependent kinase-like 1 (Homo sapiens) (UniProt Q00532); test: Inhibition of human recombinant CDKL1 at 40 nM in presence of ATP by radiometric assay relative to control
[15] = molecular target: Platelet-derived growth factor receptor alpha (Homo sapiens) (UniProt P16234); test: Inhibition of human recombinant PDGFRa at 40 nM in presence of ATP by radiometric assay relative to control
[16] = molecular target: Serine/threonine-protein kinase N1 (Homo sapiens) (UniProt Q16512); test: Inhibition of human recombinant PKN1 at 40 nM related to control ULK1
Sequence of Serine/threonine-protein kinase N1 (Homo sapiens) (Q16512 2-942 limits assumed): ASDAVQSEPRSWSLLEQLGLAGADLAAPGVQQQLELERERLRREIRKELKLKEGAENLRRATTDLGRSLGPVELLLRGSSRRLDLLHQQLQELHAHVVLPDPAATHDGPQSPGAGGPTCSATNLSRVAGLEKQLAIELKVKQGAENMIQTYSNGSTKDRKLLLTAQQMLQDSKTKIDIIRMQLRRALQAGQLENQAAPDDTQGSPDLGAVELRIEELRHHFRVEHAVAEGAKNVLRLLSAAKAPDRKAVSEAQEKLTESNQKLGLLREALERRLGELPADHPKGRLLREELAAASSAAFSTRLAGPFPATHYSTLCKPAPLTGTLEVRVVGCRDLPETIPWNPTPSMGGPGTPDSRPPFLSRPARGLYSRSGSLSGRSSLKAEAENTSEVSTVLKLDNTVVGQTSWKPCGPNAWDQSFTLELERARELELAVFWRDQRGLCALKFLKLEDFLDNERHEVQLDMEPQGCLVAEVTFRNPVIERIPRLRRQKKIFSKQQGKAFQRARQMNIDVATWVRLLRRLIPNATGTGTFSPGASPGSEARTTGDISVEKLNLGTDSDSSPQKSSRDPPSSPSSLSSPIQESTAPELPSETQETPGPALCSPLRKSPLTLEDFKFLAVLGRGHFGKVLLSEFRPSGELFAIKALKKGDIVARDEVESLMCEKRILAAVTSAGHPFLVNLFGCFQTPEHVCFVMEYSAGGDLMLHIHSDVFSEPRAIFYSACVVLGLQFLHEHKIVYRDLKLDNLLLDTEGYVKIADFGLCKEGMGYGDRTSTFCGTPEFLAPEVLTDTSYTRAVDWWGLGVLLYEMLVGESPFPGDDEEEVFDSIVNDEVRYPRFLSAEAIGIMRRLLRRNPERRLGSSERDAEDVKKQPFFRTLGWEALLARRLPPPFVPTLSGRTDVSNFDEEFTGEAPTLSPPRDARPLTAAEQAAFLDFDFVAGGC

Sequence of Tau-tubulin kinase 2 (Homo sapiens) (Q6IQ55 whole entry): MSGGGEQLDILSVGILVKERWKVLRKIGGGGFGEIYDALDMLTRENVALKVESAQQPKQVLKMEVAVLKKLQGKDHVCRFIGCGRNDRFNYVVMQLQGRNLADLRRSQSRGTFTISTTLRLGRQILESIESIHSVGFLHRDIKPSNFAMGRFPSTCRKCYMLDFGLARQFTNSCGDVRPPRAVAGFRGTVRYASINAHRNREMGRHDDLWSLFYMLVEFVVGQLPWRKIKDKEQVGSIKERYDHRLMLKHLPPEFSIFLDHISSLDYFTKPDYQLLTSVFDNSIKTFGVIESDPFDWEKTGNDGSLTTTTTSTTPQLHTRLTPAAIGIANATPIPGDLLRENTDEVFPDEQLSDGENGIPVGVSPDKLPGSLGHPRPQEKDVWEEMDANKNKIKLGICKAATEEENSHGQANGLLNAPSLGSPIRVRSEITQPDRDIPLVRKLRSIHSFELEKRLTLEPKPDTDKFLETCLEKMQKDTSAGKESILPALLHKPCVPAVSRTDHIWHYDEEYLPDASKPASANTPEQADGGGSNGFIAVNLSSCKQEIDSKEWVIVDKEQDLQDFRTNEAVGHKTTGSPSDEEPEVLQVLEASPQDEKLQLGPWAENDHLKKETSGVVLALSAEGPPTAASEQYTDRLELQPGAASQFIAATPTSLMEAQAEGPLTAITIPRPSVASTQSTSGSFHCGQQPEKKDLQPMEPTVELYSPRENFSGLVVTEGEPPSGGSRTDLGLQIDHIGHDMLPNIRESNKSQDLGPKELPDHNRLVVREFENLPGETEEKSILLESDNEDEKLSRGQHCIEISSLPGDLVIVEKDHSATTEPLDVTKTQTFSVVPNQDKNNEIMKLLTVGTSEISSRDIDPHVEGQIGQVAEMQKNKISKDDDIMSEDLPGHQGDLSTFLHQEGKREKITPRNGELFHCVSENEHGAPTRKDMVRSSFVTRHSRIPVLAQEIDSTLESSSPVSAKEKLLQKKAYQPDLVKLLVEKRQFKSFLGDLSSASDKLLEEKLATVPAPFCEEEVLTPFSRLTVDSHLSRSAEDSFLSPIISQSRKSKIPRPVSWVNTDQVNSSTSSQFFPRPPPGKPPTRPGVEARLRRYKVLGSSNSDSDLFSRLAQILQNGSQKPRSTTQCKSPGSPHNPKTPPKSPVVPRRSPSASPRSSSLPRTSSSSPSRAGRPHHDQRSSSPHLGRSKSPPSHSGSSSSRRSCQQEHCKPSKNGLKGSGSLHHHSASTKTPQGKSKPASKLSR

fold change (FC) [1]: 0.08 | inhibition [2]: 0% | inhibition [3]: 3% | inhibition [4]: 0% | fold change (FC) [5]: 0.31 | fold change (FC) [6]: 0.03 | fold change (FC) [7]: 1.14
Structure (SMILES): CNC(=O)c1ccccc1Oc1nc(Nc2cc(OC)c(OC)c(OC)c2)ncc1Br

fold change (FC) [8]: 0 | fold change (FC) [9]: 0.01 | inhibition [10]: 19% | fold change (FC) [11]: 0 | fold change (FC) [12]: 0
Structure (SMILES): CC(C)[C@H](NC(=O)c1cc(-c2cnn3cc(-c4ccc(OCCN5CCCCC5)cc4)cnc23)cs1)C(F)(F)F

inhibition [13]: 45% | inhibition [14]: 15% | inhibition [15]: 0% | fold change (FC) [16]: 0
Structure (SMILES): O=C(N[C@@H](C1CC1)C(F)(F)F)c1cc(-c2cnn3cc(-c4ccc(F)cc4)cnc23)cs1
